Experimental data published in patent publication US9890192B2, “Targeted nitroxide agents” (University of Pittsburgh—of the Commonwealth System of …, priority 2008, dated 2018).

Key:
[1] = tested on: rat ileal mucosal permeability; assay: Intestinal mucosal permeability assay (FD4) after hemorrhagic shock; format: in vivo
Method: Intestinal mucosal permeability assay. Animals were allowed access to water but not food for 24 h prior to the experiment in order to decrease the volume of intestinal contents. The rats were instrumented as described above. A midline laparotomy was performed and the small intestine was exteriorized from the duodenojejunal junction to the ileocecal valve. A small incision was made on the antimesenteric aspect of the proximal small intestine and saline solution (1.5 ml) was injected. The bowel was ligated proximally and distally to the incision with 4-0 silk (Look, Reading, Pa.).
The small intestine was compressed gently in aboral direction along its length to displace intestinal contents into the colon. Starting 5 cm from the ileocecal valve, the ileum was partitioned into six contiguous water-tight segments. Each segment was 3 cm long and was bounded proximally and distally by constricting circumferential 4-0 silk sutures. Care was taken to ensure that the vascular supply to intestine was not compromised, and each segment was well-perfused.
Two randomly selected segments in each rat were injected with 0.3 ml of vehicle and served as “no treatment” controls. In order to fill the segments, a small incision was made and the solution was injected using a Teflon catheter (Abbocath 16Ga, Abbot Laboratories).
The remaining four other segments were injected with solutions containing either 4-hydroxy-2,2,6,6-tetramethylpiperidine-N-oxyl (TEMPOL) or one of the Gramicidin S-based compounds. Four different final concentrations of TEMPOL in normal saline were evaluated: 0.1, 1, 5 and 20 mM. The hemigranmicidin-based compounds were dissolved in a mixture of dimethylsulfoxide (DMSO) and normal saline (1:99 v/v) and injected at final concentrations of 0.1, 1, 10 or 100 μM. […]
Fluorescence of FD4 in the solution inside the beaker and within each gut sac was measured using a fluorescence spectrophotometer (LS-50, Perkin-Elmer, Palo Alto, Calif.) at an excitation wavelength of 492 nm and an emission wavelength of 515 nm. […]

caspases 3 and 7 = assay: Caspases 3 and 7 activity assay in gut mucosa after hemorrhagic shock; format: in vivo, rat; details: intraluminal XJB-5-131 solution vs vehicle
Method: Caspases 3 and 7 activity assay. Caspases 3 and 7 activity was measured using a commercially available assay kit, Caspase Glo™ 3/7 assay kit (Promega, Madison, Wis.). Briefly, 50 μl of rat gut mucosa homogenate (20 jug protein) was mixed with 50 μl of Caspase-Glo™ reagent and incubated at room temperature for 1 hour. At the end of incubation period, the luminescence of each sample was measured using a plate reading chemiluminometer (ML1000, Dynatech Laboratories, Horsham, Pa.). Activity of caspases 3 and 7 was expressed as luminescence intensity (arbitrary units per mg protein). Protein concentrations were determined using the BioRad assay (Bio-Rad Laboratories, Inc., Hercules, Calif.).
After two hours of HS, samples of ileal mucosa from the gut sacs filled with the vehicle and XJB-5-131 were obtained and compared with ileal mucosa of normal MECs. All samples were assayed with caspase 3 or caspase 7 activity as well as the peroxidation of phosphatidylcholine (“PC”), phosphatidylethanolamine (“PE”), phosphatidylserine (“PS”), and cardiolipin (“CL”), summarized in FIG. 7.

[2] = tested on: Ercc1−/cond; K14-Cre mice; assay: Photoaging after UV-B in Ercc1−/cond; K14-Cre mice; format: in vivo, mouse; details: 80 μg in a cream daily for five days
Method: As a measure of the effect of XJB-5-131 on photoaging, Ercc1^−/cond; K14-Cre mice, which are missing ERCC1 only in the skin, were shaved, treated with a depilatory then irradiated with UV-B light to induce a sunburn (500 J/m^2, the median erythemal dose). Subsequently, the mice were treated with XJB-5-131 (80 μg) emulsified in a cream daily for five days.

[3] = tested on: p16 in primary MEFs from Ercc1−/− mouse embryos; assay: p16 immunofluorescence in Ercc1−/− MEFs under 20% oxygen; format: cell-based; details: 1 uM, 48 hrs
Method: To test the protective activity of JP4-039, cultures of primary MEFs were prepared from Ercc1^−/− mouse embryos and grown under 20% oxygen (ambient air), which creates oxidative stress in these cells that are hypersensitive to reactive oxygen species. The cells were then either treated with a concentration of 1 uM XJB-5-131, JP4-039, JED-E71-37 or JED-E71-58, or left untreated (media), and then after 48 hrs the level of p16, a marker of irreversible cellular senescence, was measured by immunofluorescence staining.

[4] = tested on: γ-H2AX in primary MEF cells from Ercc1−/− mice; assay: γ-H2AX immunostaining in Ercc1−/− MEFs under oxidative stress; format: cell-based, mouse; details: 1 μM, 48 hours
Method: Next, the abilities of these two agents, as well as XJB-5-131 and JP4-039, each at a concentration of 1 μM, were tested for their ability to prevent oxidation-induced DNA double-strand breaks in cell cultures prepared, and oxidatively stressed, as in the preceding paragraph. Treated as well as untreated cells were, after 48 hours of treatment, immunostained for γ-H2AX, a marker of DNA double-strand breaks as well as cellular senescence.

## CC(C)C[C@@H](/C=C/[C@H](Cc1ccccc1)C(=O)N1CCC[C@H]1C(=O)N[C@H](C(=O)N[C@@H](CCCNC(=O)OCc1ccccc1)C(=O)NC1CC(C)(C)N([O])C(C)(C)C1)C(C)C)NC(=O)OC(C)(C)C [XJB-5-131]
[1]; from lowest effective concentrations
  potency relative to TEMPOL: ~1000 fold
[1]; intraluminal
  hemorrhagic shock-induced mucosal hyperpermeability, of the control value: approximately 60%
  lowest effective concentration: 1 µM
Caspases 3 and 7
  caspase 3 and 7 activity after hemorrhagic shock: significantly decreased
[2]
  appearance of skin after UV-B: much more smooth and healthy
[3]
  level of p16: less effective
[4]
  γ-H2AX (oxidation-induced DNA double-strand breaks): less effective
